Source: patent publication US11066412B2, “Substituted pyrrolo[2,1-a]phthalazines and benzo[g]pyrrolo[2,1-a]phthalazines for the treatment of cancer” (Academia Sinica, priority 2017, dated 2021)
Like-named read-outs stand apart in the source and are kept apart here.

Tests used:
pEGFP-N1 plasmid DNA = assay: DNA cross-linking, alkaline agarose gel electrophoresis; type: biochemical; conditions: 1-20 μM, 37° C., 2 hrs; FIG. 1
Description: In the present example, BO-2590, BO-2577 (Formula I-A) and BO-2698, BO-2755, BO-2762 and BO-2768 (Formula I-B) were tested for their DNA crosslinking activity, in which the cross-linking was analyzed by alkaline agarose gel electrophoresis. In brief, purified pEGFP-N1 plasmid DNA (1,500 ng) was mixed with various concentrations (1-20 μM) of the tested compounds in 40 μL binding buffer (3 mM sodium chloride/1 mM sodium phosphate, pH 7.4, and 1 mM EDTA). The reaction mixture was incubated at 37° C. for 2 hrs. At the end of reaction, the plasmid DNA was linearized by digestion with BamHI and followed by precipitation with ethanol. The DNA pellets were dissolved and denatured in alkaline buffer (0.5 N NaOH-10mM EDTA). An aliquot of 20 μL of DNA solution (1,000 ng) was mixed with 4 μL of 6× alkaline loading dye and then electrophoretically resolved on a 0.8% alkaline agarose gel with NaOH-EDTA buffer at 4° C. The electrophoresis was carried out at 18V for 22 h. After staining the gels with an ethidium bromide solution, the DNA was visualized under UV light. Results are illustrated in FIG. 1.

VEGFR-2 = molecular target: T1, VEGFR-2 (Homo sapiens, UniProt P35968); assay: VEGFR-2 activation, western blotting in EA.hy926 cells; type: cell-based; conditions: EA.hy926 cells, 12 hr; FIG. 3
T1 construct: endogenous in cells; host or cells: EA.hy926 endothelial cells
T1 sequence (P35968 20-1356): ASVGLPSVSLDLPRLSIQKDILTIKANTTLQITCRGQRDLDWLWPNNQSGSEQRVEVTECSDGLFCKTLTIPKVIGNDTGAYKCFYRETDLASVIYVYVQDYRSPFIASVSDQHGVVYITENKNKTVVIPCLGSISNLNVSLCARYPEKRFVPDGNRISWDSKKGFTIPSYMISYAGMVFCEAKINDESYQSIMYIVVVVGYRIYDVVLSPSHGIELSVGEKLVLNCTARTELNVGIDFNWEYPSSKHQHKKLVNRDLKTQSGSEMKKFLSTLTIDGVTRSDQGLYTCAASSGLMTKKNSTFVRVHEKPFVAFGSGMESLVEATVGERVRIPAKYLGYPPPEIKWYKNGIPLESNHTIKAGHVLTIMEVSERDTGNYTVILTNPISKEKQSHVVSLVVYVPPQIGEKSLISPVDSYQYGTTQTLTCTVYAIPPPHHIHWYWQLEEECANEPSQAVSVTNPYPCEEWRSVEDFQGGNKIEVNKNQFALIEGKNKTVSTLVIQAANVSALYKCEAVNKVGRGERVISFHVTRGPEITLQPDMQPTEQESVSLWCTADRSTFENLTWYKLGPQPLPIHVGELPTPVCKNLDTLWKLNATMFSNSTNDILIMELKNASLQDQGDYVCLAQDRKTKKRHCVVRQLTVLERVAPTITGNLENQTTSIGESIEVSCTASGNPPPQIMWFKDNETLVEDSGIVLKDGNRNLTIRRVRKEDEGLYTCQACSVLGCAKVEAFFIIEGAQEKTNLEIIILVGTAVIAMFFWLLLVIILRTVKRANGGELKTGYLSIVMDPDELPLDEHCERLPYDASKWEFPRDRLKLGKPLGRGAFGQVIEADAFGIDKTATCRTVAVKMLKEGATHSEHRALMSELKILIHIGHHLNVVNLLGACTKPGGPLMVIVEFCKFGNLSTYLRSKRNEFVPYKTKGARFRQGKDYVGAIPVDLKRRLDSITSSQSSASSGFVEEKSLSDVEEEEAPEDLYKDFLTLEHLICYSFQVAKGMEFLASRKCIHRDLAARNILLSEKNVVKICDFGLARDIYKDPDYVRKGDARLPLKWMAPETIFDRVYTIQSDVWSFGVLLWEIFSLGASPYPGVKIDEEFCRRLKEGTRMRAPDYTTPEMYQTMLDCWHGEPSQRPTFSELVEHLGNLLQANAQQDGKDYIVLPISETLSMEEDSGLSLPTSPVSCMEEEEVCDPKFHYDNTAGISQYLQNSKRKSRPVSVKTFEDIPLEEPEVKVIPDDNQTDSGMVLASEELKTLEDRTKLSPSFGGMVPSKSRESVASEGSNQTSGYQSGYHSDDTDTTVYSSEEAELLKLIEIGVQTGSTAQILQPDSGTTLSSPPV
Description: In the present example, BO-2590 and BO-2577 were subject to the test of their activity in suppressing VEGFR-2 by western blotting analysis. Briefly, the endothelial EA.hy926 cells were incubated with BO-2590 or BO-2577 at various concentrations for 12 hr. The primary antibodies, anti-VEGFR-2 and anti-p-VEGFR-2, were used to blot the proteins of total VEGFR-2 and p-VEGFR-2, respectively. Results are illustrated in FIG. 3.

[1] = system: small cell lung cancer H526; assay: in vitro cytotoxicity, PrestoBlue assay; type: cell-based, human
[2] = system: human lymphoblastic leukemia cell line (CCRF-CEM); assay: in vitro cytotoxicity, PrestoBlue assay; type: cell-based; conditions: read-out: IC50 CCRF-CEM
Description: (§1) All representative compounds of Formulae (I-A) and (I-B) were first evaluated for their in vitro cytotoxicity to human lymphoblastic leukemia cell line (CCRF-CEM) and its vinblastine-resistant sub-cell line (CCRF-CEM/VBL) (see Table 1).
(§2) After a 72-hr incubation in various concentrations of the newly synthesized compounds, the cytotoxic effects of them to all cell lines were determined by the PrestoBlue®(Invitrogen) assay using a microplate spectrophotometer. Briefly, at the end of treatment, an aliquot of PrestoBlue® solution was added and then cells were incubated at 37° C. for 1-2 hr. The absorbance at 570 and 600 nm was measured with a microplate reader. […] The ICso is defined by the concentration required to inhibit tumor cell growth by 50%. Data represent the mean±STDEV of three to six independent experiments for each compound.

[3] = system: vinblastine-resistant sub-cell line (CCRF-CEM/VBL); assay: in vitro cytotoxicity, PrestoBlue assay; type: cell-based, human; conditions: for IC50: read-out: IC50 CEM/VBL; for resistance factor (IC50 CEM/VBL vs IC50 of the parent cell line): number in brackets
Description: as §1, §2

pancreatic cancer PacaS1 = assay: in vitro cytotoxicity, PrestoBlue assay; type: cell-based, human; conditions: Table 2
Description: as §1, §2

[4] = system: non-small cell lung cancer H460; assay: in vitro cytotoxicity, PrestoBlue assay; type: cell-based, human; conditions: Table 2
Description: as §1, §2

colon cancer HCT-116 = assay: in vitro cytotoxicity, PrestoBlue assay; type: cell-based, human; conditions: Table 2
Description: as §1, §2

H146 = assay: in vitro cytotoxicity to SCLC cells; type: cell-based, human; conditions: Table 3
Description: as §2

H82 = assay: in vitro cytotoxicity to SCLC cells; type: cell-based, human; conditions: Table 3
Description: as §2

H211 = assay: in vitro cytotoxicity to SCLC cells; type: cell-based, human; conditions: Table 3
Description: as §2

H1417 = assay: in vitro cytotoxicity to SCLC cells; type: cell-based, human; conditions: Table 3
Description: as §2

[5] = system: human SCLC H526 xenografts; assay: tumor growth in xenograft-bearing nude mice; type: in vivo; conditions: micelle formulation (Kolliphor/TWEEN 80/PEG400/ethanol/D5W); BO-2768 at 20 mg/kg twice daily; FIG. 12, panel A
Description: Athymic nude mice bearing the nu/nu gene were obtained from the National Laboratory Animal Center (Taipei, Taiwan). Male nude mice (6 weeks or older weighing 20-24 g or more) were used for all human tumor xenografts. The tested compounds were intravenously administered through tail vein. Tumor volume was determined by measuring the length x width x height (or width) with calipers. […] For tumor-bearing nude mice during the course of the experiment, the % body weight changes refer to: (the total weight on reading day/the total weight on day treatment started)×100.
In all experiments, the tumor cells were subcutaneously implanted in nude mice, and the BO-2590L was administered via tail vein when the tumor size reaching approximate 100 mm^3. […]
To confirm the therapeutic activity of BO-2590L, comparative experiments carried out by known chemotherapeutic agents, such as vatanalib and cisplatin, were also performed. Briefly, the H526 xenograft-bearing mice were divided into 4 groups which were treated with vehicle, BO-2590L (10 mg/kg, QD×9), vatalanib (100 mg/kg, QD×9), and cisplatin (4 mg/kg, Q2D×3), respectively. Results are illustrated in FIG. 11.
Results are illustrated in FIGS. 12 and 13.

[6] = body weight changes of xenograft-bearing nude mice; type: in vivo; conditions: H526 xenograft mice, micelle formulation; FIG. 12, panel B
Description: Athymic nude mice bearing the nu/nu gene were obtained from the National Laboratory Animal Center (Taipei, Taiwan). Male nude mice (6 weeks or older weighing 20-24 g or more) were used for all human tumor xenografts. The tested compounds were intravenously administered through tail vein. Tumor volume was determined by measuring the length x width x height (or width) with calipers. The vehicle used for the tested compounds was normal saline (0.9% NaCl isotonic solution). For tumor-bearing nude mice during the course of the experiment, the % body weight changes refer to: (the total weight on reading day/the total weight on day treatment started)×100.

[7] = Homo sapiens, CCRF-CEM, 72-hr incubation, mean ± STDEV of three to six experiments
[8] = 72-hr incubation, mean ± STDEV of three to six experiments

Row | SMILES | formation of DNA interstrand crosslinks (pEGFP-N1 plasmid DNA) | resistance factor (IC50 CEM/VBL vs IC50 of the parent cell line) [3] | IC50 Paca SI (pancreatic cancer PacaS1) | melting point | IC50 (H146) | IC50 (H82) | IC50 (H211) | IC50 (H1417) | IC50 ([1]; Table 2, read-out: IC50 H526) | IC50 ([1]; Table 3, read-out: IC50 H526) | IC50 [2, 8] | IC50 [3, 8] | IC50 [4] | IC50 (colon cancer HCT-116) | other results
1 | CCc1c(CO)c(CO)c2c3ccccc3c(N3CCOCC3)nn12 [BO-2577, (3-Ethyl-6-morpholinopyrrolo[2,1-a]phthalazine-1,2-diyl)-dimethanol] | induced DNA interstrand crosslinks | 0.84 × | 13020 ± 930 nM | 180 to 182 °C |  |  |  |  |  |  |  |  |  |  | p-VEGFR-2 protein levels (VEGFR-2): marked suppression in p-VEGFR-2 protein levels; total protein levels of VEGFR-2 (VEGFR-2): did not significantly change the total protein levels of VEGFR-2; IC50 ([1]; Homo sapiens, NCI-H526, Table 2, read-out: IC50 H526): 750 ± 120 nM; IC50 [2, 7]: 3040 ± 380 nM; IC50 [3, 7]: 2550 ± 120 nM; IC50 ([4]; Homo sapiens, NCI-H460): 18570 ± 180 nM; IC50 (colon cancer HCT-116; Homo sapiens, HCT-116): 11500 ± 1660 nM
2 | Cc1c(CO)c(CO)c2c3ccccc3c(N3CCCC3)nn12 [BO-2686, (3-Methyl-6-(pyrrolidin-1-yl)pyrrolo[2,1-a]phthalazine-1,2 diyl)dimethanol] |  | 0.51 × | 11730 ± 1160 nM | 160 to 162 °C |  |  |  |  |  |  |  |  |  |  | IC50 ([1]; Homo sapiens, NCI-H526, read-out: IC50 H526): 300 ± 40 nM; IC50 ([2]; Homo sapiens, CCRF-CEM, 72 h): 920 ± 70 nM; IC50 ([3]; Homo sapiens, CCRF-CEM, 72 h): 470 ± 50 nM; IC50 ([4]; Homo sapiens, NCI-H460): 3870 ± 730 nM; IC50 (colon cancer HCT-116; Homo sapiens, HCT-116): 3960 ± 60 nM
3 | Cc1c(CO)c(CO)c2c3cc4ccccc4cc3c(N3CCOCC3)nn12 [BO-2698] | induced DNA interstrand crosslinks | 0.86 × | 880 ± 260 nM |  | 1020 ± 160 nM | 400 ± 160 nM | 220 ± 70 nM | 370 ± 10 nM | 40 ± 10 nM | 90 ± 60 nM | 380 ± 50 nM | 330 ± 30 nM | 1180 ± 100 nM | 1130 ± 20 nM | 
4 | CCNC(=O)OCc1c(COC(=O)NCC)c2c3ccccc3c(N3CCCC3)nn2c1C [BO-2716, (3-Methyl-6-(pyrrolidin-1-yl)pyrrolo[2,1-a]phthalazine-1,2-diyl)-bis(methylene) bis(ethylcarbamate)] |  | 1.47 × |  | 140 to 142 °C |  |  |  |  |  |  |  |  |  |  | IC50 ([2]; Homo sapiens, CCRF-CEM, 72 h): 1420 ± 90 nM; IC50 ([3]; Homo sapiens, CCRF-CEM, 72 h): 2100 ± 90 nM
5 | Cc1c(CO)c(CO)c2c3cc4ccccc4cc3c(N3CCCCC3)nn12 [BO-2755] | induced DNA interstrand crosslinks | 1.26 × | 10010 ± 1640 nM |  | 2650 ± 1390 nM | 1480 ± 660 nM | 800 ± 330 nM | 1370 ± 30 nM | 120 ± 40 nM | 220 ± 60 nM | 800 ± 90 nM | 1010 ± 110 nM | 3030 ± 480 nM | 4130 ± 270 nM | 
6 | Cc1c(CO)c(CO)c2c3cc4ccccc4cc3c(N3CCCC3)nn12 [BO-2762, (3-Methyl-6-(pyrrolidin-1-yl)benzo[g]pyrrolo[2,1-α]phthalazine-1,2-diyl)dimethanol] | induced DNA interstrand crosslinks | 0.74 × | 1040 ± 80 nM |  | 1010 ± 240 nM | 410 ± 150 nM | 200 ± 120 nM | 600 ± 340 nM | 50 ± 10 nM | 30 ± 10 nM | 190 ± 10 nM | 140 ± 20 nM | 780 ± 240 nM | 930 ± 120 nM | 
7 | Cc1c(CO)c(CO)c2c3cc4ccccc4cc3c(N3CCC(N4CCCCC4)CC3)nn12 [BO-2792] |  | 1.51 × |  |  | 200 ± 150 nM | 40 ± 10 nM | 20 ± 20 nM | 250 ± 50 nM |  | 3 ± 3 nM | 17 ± 9 nM | 25 ± 5 nM |  |  | tumor size [5]: as effective as irinotecan and cisplatin in reducing the tumor size; deleterious effects on the bodyweight of the test animals [6]: none
8 | CCc1c2c(nc3ccc(OC(=O)N4CCC(N5CCCCC5)CC4)cc13)-c1cc3c(c(=O)n1C2)COC(=O)[C@]3(O)CC [Irinotecan, reference compound] |  |  |  |  |  |  |  |  |  |  |  |  |  |  | IC50 (H146; Homo sapiens, NCI-H146): 11500 ± 6530 nM; IC50 (H82; Homo sapiens, NCI-H82): 2260 ± 10 nM; IC50 (H211; Homo sapiens, NCI-H211): 8810 ± 460 nM; IC50 (H1417; Homo sapiens, NCI-H1417): 9790 ± 840 nM; tumor size [5]: slowly increased in size; IC50 ([1]; Homo sapiens, NCI-H526, Table 3, read-out: IC50 H526): 590 ± 300 nM; deleterious effects on the bodyweight of the test animals [6]: none
